# Test results: patent US9968620B2, “Methods of treating lymphoma using thienotriazolodiazepine compounds” (ONCOETHIX GmbH, priority 2014, dated 2018)
# Where a name gives a salt, the structure may show the parent alone.
# What was measured:
# [1] = target: JAK-1 (Homo sapiens, UniProt P23458); conditions: cited from earlier work
# [2] = target: JAK-2 (Homo sapiens, UniProt O60674); conditions: cited from earlier work
# [3] = target: JAK-3 (Homo sapiens, UniProt P52333); conditions: cited from earlier work
# JAK-3, sequence (P52333 whole entry, species assumed): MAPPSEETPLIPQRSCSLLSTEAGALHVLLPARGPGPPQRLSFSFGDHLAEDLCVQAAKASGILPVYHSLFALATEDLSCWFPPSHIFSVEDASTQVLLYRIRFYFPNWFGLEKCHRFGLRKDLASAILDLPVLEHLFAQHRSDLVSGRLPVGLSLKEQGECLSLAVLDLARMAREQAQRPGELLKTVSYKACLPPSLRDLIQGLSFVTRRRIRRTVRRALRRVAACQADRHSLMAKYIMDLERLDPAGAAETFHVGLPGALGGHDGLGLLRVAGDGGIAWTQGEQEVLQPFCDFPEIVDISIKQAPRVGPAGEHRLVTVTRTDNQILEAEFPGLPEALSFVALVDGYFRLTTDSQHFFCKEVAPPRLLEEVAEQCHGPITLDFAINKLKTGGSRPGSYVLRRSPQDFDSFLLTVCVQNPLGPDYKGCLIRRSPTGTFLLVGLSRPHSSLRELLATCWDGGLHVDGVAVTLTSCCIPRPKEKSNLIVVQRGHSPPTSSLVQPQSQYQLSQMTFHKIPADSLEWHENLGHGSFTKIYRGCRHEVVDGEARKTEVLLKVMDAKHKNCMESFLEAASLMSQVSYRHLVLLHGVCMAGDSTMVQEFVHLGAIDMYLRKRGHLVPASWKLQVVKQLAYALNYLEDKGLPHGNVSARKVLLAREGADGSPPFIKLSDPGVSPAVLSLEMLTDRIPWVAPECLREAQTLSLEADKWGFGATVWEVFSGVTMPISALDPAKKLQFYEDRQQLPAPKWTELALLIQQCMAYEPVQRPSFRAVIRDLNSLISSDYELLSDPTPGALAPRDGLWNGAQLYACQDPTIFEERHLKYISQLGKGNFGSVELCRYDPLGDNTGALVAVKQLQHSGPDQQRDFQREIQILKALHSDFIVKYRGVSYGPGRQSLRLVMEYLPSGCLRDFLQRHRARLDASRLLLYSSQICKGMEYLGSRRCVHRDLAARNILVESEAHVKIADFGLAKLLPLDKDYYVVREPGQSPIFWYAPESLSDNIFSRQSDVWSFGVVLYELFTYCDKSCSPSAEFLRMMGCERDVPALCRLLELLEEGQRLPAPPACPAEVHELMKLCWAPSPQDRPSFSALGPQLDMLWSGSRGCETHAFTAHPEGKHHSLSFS
# [4] = target: SYK (Homo sapiens, UniProt P43405); conditions: cited from earlier work
# [5] = target: EGFR kinase (Homo sapiens, UniProt P00533); conditions: cited from earlier work
# EGFR kinase, sequence (P00533 25-1210): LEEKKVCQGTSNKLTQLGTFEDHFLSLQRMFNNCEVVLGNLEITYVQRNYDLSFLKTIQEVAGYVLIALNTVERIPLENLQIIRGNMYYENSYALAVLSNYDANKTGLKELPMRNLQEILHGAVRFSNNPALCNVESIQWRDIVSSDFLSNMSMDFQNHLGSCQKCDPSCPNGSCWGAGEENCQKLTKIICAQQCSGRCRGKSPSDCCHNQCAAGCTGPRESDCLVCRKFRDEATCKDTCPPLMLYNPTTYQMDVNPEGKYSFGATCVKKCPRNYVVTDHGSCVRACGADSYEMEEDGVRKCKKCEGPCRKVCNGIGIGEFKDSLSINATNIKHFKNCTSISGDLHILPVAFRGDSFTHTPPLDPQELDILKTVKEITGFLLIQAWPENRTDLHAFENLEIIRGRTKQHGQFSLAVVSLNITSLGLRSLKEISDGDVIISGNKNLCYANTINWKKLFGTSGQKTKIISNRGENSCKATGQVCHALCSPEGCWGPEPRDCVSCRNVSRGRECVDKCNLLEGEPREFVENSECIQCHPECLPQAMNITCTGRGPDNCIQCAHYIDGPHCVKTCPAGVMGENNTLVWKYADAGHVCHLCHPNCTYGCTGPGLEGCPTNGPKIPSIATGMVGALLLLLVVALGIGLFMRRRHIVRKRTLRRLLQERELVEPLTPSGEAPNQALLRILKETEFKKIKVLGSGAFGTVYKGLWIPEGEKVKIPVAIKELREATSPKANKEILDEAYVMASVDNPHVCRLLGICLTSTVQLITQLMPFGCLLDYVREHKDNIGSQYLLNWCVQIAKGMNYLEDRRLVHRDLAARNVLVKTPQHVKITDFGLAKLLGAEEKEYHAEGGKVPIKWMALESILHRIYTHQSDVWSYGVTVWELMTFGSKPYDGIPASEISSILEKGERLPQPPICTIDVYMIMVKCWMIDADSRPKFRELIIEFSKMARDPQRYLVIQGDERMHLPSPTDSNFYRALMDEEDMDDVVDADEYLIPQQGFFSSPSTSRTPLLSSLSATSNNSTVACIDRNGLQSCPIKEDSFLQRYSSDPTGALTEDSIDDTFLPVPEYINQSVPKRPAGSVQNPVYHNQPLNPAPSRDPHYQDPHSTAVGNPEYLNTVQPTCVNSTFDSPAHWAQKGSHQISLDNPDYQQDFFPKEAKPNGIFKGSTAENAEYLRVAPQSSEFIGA
# [6] = target: IR kinase (Homo sapiens, UniProt P06213); conditions: cited from earlier work
# IR kinase, sequence (P06213 28-1382): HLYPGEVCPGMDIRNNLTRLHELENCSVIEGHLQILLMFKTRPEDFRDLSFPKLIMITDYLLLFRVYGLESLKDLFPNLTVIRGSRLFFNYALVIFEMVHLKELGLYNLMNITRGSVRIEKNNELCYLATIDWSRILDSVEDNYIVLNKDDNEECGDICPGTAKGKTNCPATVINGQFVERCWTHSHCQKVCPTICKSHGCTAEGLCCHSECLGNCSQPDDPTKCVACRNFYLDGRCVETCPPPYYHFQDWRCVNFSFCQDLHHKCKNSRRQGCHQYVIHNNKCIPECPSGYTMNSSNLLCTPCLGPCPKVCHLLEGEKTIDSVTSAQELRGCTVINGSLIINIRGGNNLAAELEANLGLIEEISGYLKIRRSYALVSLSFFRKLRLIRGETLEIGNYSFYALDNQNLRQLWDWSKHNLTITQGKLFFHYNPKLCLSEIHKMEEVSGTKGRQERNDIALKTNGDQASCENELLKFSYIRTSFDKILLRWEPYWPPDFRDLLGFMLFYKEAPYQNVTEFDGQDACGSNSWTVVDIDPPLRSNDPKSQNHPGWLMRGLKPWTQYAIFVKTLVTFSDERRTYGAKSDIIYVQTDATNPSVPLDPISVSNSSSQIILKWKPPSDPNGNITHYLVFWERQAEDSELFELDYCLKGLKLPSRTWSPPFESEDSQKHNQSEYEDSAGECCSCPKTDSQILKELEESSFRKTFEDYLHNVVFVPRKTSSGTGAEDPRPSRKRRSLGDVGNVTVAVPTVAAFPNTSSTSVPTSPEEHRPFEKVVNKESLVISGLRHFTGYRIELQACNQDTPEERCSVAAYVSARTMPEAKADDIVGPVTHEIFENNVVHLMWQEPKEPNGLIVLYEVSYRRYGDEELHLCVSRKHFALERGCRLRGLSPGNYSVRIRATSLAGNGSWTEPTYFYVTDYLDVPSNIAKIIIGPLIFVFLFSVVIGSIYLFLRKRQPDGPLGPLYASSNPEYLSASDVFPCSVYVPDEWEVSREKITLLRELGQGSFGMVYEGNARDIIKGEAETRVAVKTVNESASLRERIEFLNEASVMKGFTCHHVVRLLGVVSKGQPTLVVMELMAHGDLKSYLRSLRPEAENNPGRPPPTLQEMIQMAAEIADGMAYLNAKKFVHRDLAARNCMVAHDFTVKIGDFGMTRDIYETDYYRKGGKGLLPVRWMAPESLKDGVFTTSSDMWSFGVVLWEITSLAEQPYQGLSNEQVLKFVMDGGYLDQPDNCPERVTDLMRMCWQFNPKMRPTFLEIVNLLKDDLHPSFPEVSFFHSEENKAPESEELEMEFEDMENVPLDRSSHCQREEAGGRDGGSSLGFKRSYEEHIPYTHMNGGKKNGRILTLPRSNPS
# [7] = target: Hck (Homo sapiens, UniProt P08631); conditions: cited from earlier work
# [8] = system: HDAC; conditions: cited from earlier work
# [9] = system: lymphoma cell lines (2-5 cell lines); assay: Synergy of compound (1-1) with other agents, MTT, Chou-Talalay combination index; type: cell-based; conditions: 72 h; for combination effect with compound (1-1): Chou-Talalay; for Chou-Talalay combination index (CI), median / Chou-Talalay combination index (CI), range: in combination with compound (1-1)
# [10] = target: FKBP12 (Homo sapiens, UniProt P62942); conditions: cited from earlier work
# FKBP12, sequence (P62942 whole entry, species assumed): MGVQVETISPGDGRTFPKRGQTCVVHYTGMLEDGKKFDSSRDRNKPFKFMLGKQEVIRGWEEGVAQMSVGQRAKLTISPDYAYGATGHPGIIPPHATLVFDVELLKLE
# [11] = system: PI3K/mTOR; conditions: cited from earlier work
# [12] = system: Akt phosphorylation on T308; conditions: cited from earlier work
# [13] = system: Akt phosphorylation on S473; conditions: cited from earlier work
# [14] = system: PDGFR; conditions: cited from earlier work
# [15] = system: pAktS473, pGSK3βS9, pS6, pMAPK, pAktT308; conditions: cited from earlier work
# [16] = target: PI3Kβ (p110β) (Homo sapiens, UniProt P42338); conditions: cited from earlier work
# [17] = target: PI3Kγ (p110γ) (Homo sapiens, UniProt P48736); conditions: cited from earlier work
# JAK-2, sequence (O60674 whole entry, species assumed): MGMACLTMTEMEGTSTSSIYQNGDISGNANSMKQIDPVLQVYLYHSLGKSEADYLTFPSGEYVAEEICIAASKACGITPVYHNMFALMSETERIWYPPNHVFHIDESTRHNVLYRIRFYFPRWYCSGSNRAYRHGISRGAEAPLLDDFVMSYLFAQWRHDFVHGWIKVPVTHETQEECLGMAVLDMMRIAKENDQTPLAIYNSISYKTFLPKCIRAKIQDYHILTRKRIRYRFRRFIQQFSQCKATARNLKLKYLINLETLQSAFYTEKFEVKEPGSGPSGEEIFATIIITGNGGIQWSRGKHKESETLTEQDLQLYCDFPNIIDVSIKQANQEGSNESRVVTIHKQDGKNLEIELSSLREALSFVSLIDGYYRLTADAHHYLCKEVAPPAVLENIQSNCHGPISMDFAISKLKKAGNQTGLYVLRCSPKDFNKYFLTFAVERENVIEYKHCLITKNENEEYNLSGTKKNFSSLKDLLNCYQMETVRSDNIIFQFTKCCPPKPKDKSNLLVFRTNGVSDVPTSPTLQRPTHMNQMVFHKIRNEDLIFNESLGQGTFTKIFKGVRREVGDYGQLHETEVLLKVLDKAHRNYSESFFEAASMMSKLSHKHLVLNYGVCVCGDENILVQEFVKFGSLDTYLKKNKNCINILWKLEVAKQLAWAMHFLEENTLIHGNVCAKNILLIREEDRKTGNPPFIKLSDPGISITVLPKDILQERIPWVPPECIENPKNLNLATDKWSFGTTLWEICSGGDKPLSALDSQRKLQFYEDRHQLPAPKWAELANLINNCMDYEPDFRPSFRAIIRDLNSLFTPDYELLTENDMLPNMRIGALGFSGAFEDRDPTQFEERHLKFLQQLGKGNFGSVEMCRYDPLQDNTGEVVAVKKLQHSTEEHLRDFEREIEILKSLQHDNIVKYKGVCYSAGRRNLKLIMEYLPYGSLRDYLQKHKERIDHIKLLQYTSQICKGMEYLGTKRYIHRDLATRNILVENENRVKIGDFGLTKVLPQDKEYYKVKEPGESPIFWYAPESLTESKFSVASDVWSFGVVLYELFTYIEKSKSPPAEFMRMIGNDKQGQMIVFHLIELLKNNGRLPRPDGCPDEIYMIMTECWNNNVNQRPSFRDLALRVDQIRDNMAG
molecule,measurement,setting,value
C/C(O)=C(\C#N)C(=O)Nc1cc(Br)ccc1Br,IC50,[1],> 300000 nM
same,IC50,[2],> 300000 nM
same,IC50,[3],> 300000 nM
same,IC50,[4],> 300000 nM
same,IC50,[5],> 300000 nM
same,IC50,[6],> 300000 nM
same,IC50,[7],> 300000 nM
CC(C)[C@H](C(=O)Nc1ccc(C(=O)NO)cc1)c1ccccc1 [AR-42],IC50,[8],30 nM
CN(C)c1ccc(C(=O)NCCCCCCC(=O)NO)cc1 [Compound M344],IC50,[8],100 nM
CO[C@H]1C[C@@H]2CC[C@@H](C)[C@@](O)(O2)C(=O)C(=O)N2CCCC[C@H]2C(=O)O[C@H]([C@H](C)C[C@@H]2CC[C@@H](OCCO)[C@H](OC)C2)CC(=O)[C@H](C)/C=C(\C)[C@@H](O)[C@@H](OC)C(=O)[C@H](C)C[C@H](C)/C=C/C=C/C=C/1C [Everolimus],combination effect with compound (1-1),[9],Synergy
same,"Chou-Talalay combination index (CI), median",[9],0.1
same,"Chou-Talalay combination index (CI), range",[9],0.1-0.2
same,IC50,[10],1.6 to 2.4 nM
CCN(CC)Cc1ccc2cc(COC(=O)Nc3ccc(C(=O)NO)cc3)ccc2c1 [ITF2357],IC50,[8],7.5 to 16 nM
O=C(/C=C/c1ccc(CN(CCO)CCc2c[nH]c3ccccc23)cc1)NO [LAQ824],IC50,[8],32 nM
Cn1c(/C=C/C(=O)NO)ccc1/C=C/C(=O)c1cccc(F)c1 [MC1568],IC50,[8],200 nM
COc1ccc(-c2ccc3ncc4c(c3c2)n(-c2ccc(N3CCNCC3)c(C(F)(F)F)c2)c(=O)n4C)cn1 [NVP-BGT226],IC50,[11],1 nM
COc1ccc(-c2cc3c(C)nc(N)nc3n([C@H]3CC[C@H](OCCO)CC3)c2=O)cn1 [PF-04691502],IC50,[12],7.5 nM
same,IC50,[13],3.8 nM
"Nc1ncnc2c1c(-c1cnc3[nH]ccc3c1)nn2C1CCCC1 [PP-121, 1-Cyclopentyl-3-(1H-pyrrolo[2,3-b]p-yridin-5-yl)-1H-pyrazolo[3,4-d]pyrimidin-4-amine]",IC50,[14],2 nM
COc1ccc(COc2cc3oc(=O)c4cc(C(C)O)ccc4c3cc2OC)cc1 (centres unmarked) [Palomid 529],"effect on phosphorylation of pAktS473, pGSK3βS9, pS6, pMAPK, pAktT308",[15],"both the mTORCl and mTORC2 complexes, reduces phosphorylation of pAktS473, pGSK3βS9, and pS6 but neither pMAPK nor pAktT308. Phase 1."
CCCCc1nc2cc(/C=C/C(=O)NO)ccc2n1CCN(CC)CC [SB939],IC50,[8],40 to 140 nM
CCCC(CCC)C(=O)O [Valproic acid sodium salt],IC50,[8],400000 nM
"O=C(CCCCCCC(=O)Nc1ccccc1)NO [Vorinostat, suberoylanilide hydroxamic acid]",combination effect with compound (1-1),[9],Synergy
same,"Chou-Talalay combination index (CI), median",[9],0.5
same,"Chou-Talalay combination index (CI), range",[9],0.3-0.6
CC1=C(/C=C/C(C)=C/C=C/C(C)=C/C(=O)O)C(C)(C)CCC1 [all-trans retinoic acid],combination effect with compound (1-1),[9],Synergy
"Cn1c(CCCC(=O)O)nc2cc(N(CCCl)CCCl)ccc21 [bendamustine, 4-[5-[Bis(2-chloroethyl)amino]-1-methylbenzimidazol-2-yl]butanoic acid]",combination effect with compound (1-1),[9],Additive effects
"COc1cccc2c1C(=O)c1c(O)c3c(c(O)c1C2=O)C[C@@](O)(C(=O)CO)C[C@@H]3O[C@H]1C[C@H](N)[C@H](O)[C@H](C)O1 [doxorubicin, (7S,9S)-7-[(2R,4S,5S,6S)-4-amino-5-hydroxy-6-methyloxan-2-yl]oxy-6,9,11-trihydroxy-9-(2-hydroxyacetyl)-4-methoxy-8,10-dihydro-7H-tetracene-5,12-dione]",combination effect with compound (1-1),[9],Additive effects
same,"Chou-Talalay combination index (CI), median",[9],0.83
same,"Chou-Talalay combination index (CI), range",[9],0.7-0.96
C=CC(=O)N1CCC[C@@H](n2nc(-c3ccc(Oc4ccccc4)cc3)c3c(N)ncnc32)C1 [ibrutinib],combination effect with compound (1-1),[9],Synergy
same,"Chou-Talalay combination index (CI), median",[9]; in ABC-DLBCL,0.04
same,"Chou-Talalay combination index (CI), range",[9]; in ABC-DLBCL,0.02-0.1
CC[C@H](Nc1ncnc2[nH]cnc12)c1nc2cccc(F)c2c(=O)n1-c1ccccc1 [idelalisib],combination effect with compound (1-1),[9],Synergy
same,"Chou-Talalay combination index (CI), median",[9],0.5
same,"Chou-Talalay combination index (CI), range",[9],0.04-2.4
Nc1cccc2c1CN(C1CCC(=O)NC1=O)C2=O (centres unmarked) [lenalidomide],combination effect with compound (1-1),[9],Synergy
same,"Chou-Talalay combination index (CI), median",[9],0.7
GSK2126458,Ki,[16],0.13 nM
same,Ki,[17],0.024 nM
rituximab: agent combined with compound (1-1) in the synergy test,combination effect with compound (1-1),[9],Synergy
same,"Chou-Talalay combination index (CI), median",[9],0.5
same,"Chou-Talalay combination index (CI), range",[9],0.4-0.5
